Laboratory results published in article PMC11266668, “Unraveling the mechanism of small molecule induced activation of Staphylococcus aureus signal peptidase IB” (Communications Biology, 2024).
In brackets after ≈: the same amount, converted by molar mass. Several values for one entry are separate records, joined by “and”; a condition that tells them apart may be missing. Equal entries are not always repeated.

What was measured:
wt SpsB [1] = target: T1, wt SpsB (Staphylococcus aureus, UniProt P0A070); assay: FRET-based signal peptidase assay with membrane-bound SpsB (wt); type: biochemical, S. aureus
T1 construct: recombinantly expressed full-length S. aureus SpsB (wt) or mutants; made in house; host or cells: E. coli BL21(DE3)pLysS, membrane fraction
Method: For preparation of E. coli membrane fractions harboring overexpressed S. aureus SpsB, E. coli BL21(DE3) pLysS cells harboring pET-55-DEST-fl-SpsB or respective mutant plasmids (F67A, Y75A, F158A, Q165A, F67A-Y75A, F67A-F158A, Y75A-F158A, F67A-Y75A-F158A) were grown in LB medium (supplemented with Ampicillin (100 µg/mL) and Chloramphenicol (34 µg/mL)) at 37°C (200 rpm) to OD600 ≈ 0.6 and protein overexpression was induced by the addition of isopropyl-1-thio-β-galactopyranoside (IPTG, 0.5 mM). After incubation (22 °C, 200 rpm, 3 h), cells were harvested by centrifugation (6000 × g, 4 °C, 10 min) and subsequently washed with PBS. The cell pellet was resuspended in 5 mL Tris-HCl buffer (50 mM, pH = 7.5) and lysed using a bead beater homogenizer (3 cycles: 5500 rpm for 45 s, 30 s cooling; Precellys Ceramic Kit CK01L, 7.0 mL tubes; Precellys 24 Homogenizer, Bertin Technologies). The lysate was centrifuged (12,000 × g, 4 °C, 10 min) to remove intact cells and debris. Membranes were collected from supernatant (39,000 × g, 4 °C, 75 min) and resuspended in ice-cold sodium phosphate buffer (50 mM, pH 7.5). Protein concentration was measured using the Pierce BCA Protein assay kit (Thermo Fisher Scientific, Pierce Biotechnology) and snap-frozen aliquots were stored at −80 °C.
Signal cleavage activities of recombinantly expressed full-length S. aureus SpsB (wt) or mutants (F67A, Y75A, F158A, Q165A, F67A-Y75A, F67A-F158A, Y75A-F158A, F67A-Y75A-F158A) in E. coli membranes were measured using a Förster Resonance Energy Transfer (FRET) assay as previously described[20],[36].
A synthetic peptide substrate based on SceD modified by 4-(4- dimethylaminophenylazo)benzoic (DABCYL) acid and 5-((2-aminoethyl)amino)-1- naphthalenesulfonic acid (EDANS) was used (DABCYL-[…]-EDANS, AnaSpec) as FRET substrate. Assays were performed with overexpressed wildtype SpsB (wt) or mutant (F67A, Y75A, F158A, Q165A, F67A-Y75A, F67A-F158A, Y75A-F158A, F67A-Y75A-F158A) in E. coli membranes. As controls for background activity, respective E. coli membranes without IPTG induction were used (see Experimental procedure “Preparation of E. coli membrane (control) fractions. Membranes containing recombinant wildtype SpsB or mutant (50 µg/mL membrane concentration, 100 µL/well final volume, sodium phosphate buffer, 50 mM, pH 7.5, addition of detergent if indicated; final concentrations in buffer: 0.1% CHAPS, 0.001% NP-40 or 0.1% Tween) were pre-treated with PK150, Arylomycin A4 or DMSO as a control (final concentration 1%) at 37 °C for 5 min. After addition of FRET substrate (10 µM final substrate concentration; final DMF concentration from substrate stock 1%), fluorescence turnover was monitored by an Infinite™ M Nano Tecan 200Pro reader (340 nm excitation and 510 nm emission wavelengths, fluorescence top reading mode) at 37 °C for at least 2 h.
The assay was performed in technical triplicates for at least three biologically independent experiments (n ≥ 3). Significance of cleavage activity was determined via a two-tailed Students t-test for comparison of membranes treated with DMSO to PK150.

wt SpsB [2] = target: T1, wt SpsB; settings: cited from earlier work
SpsB Q165A mutant = target: T2, SpsB Q165A mutant (Staphylococcus aureus, UniProt P0A070, Q165A); assay: FRET-based signal peptidase assay with membrane-bound SpsB, Q165A mutant; type: biochemical, S. aureus; settings: 10 µM; relative to DMSO
T2 construct: recombinantly expressed full-length S. aureus SpsB (wt) or mutants; made in house; host or cells: E. coli BL21(DE3)pLysS, membrane fraction
T2 sequence (P0A070 1-191 Q165A): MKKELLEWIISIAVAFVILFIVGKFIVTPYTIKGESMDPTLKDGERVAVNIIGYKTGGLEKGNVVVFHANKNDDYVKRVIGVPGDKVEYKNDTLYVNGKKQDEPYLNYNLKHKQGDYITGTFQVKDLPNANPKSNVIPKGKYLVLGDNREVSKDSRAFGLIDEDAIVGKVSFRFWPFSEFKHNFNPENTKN
Method: Cloning of full-length SpsB (fl-SpsB) was performed using the Invitrogen Gateway Technology in previous works by Le et al.. fl-SpsB was cloned into the destination vector pET-55-DEST (Novagen) and transformed into chemically competent E. coli BL21(DE3)pLysS cells (Promega) to prevent leaky protein overexpression. Plasmid DNA of wildtype SpsB pET-55-DEST-fl-SpsB was purified using a plasmid Miniprep Kit (peqGOLD Plasmid Miniprep Kit II, VWR Peqlab) according to the manufacturer’s instructions and used as template for all single point mutations (F67A, Y75A, F158A, Q165A). […]
For preparation of E. coli membrane fractions harboring overexpressed S. aureus SpsB, E. coli BL21(DE3) pLysS cells harboring pET-55-DEST-fl-SpsB or respective mutant plasmids (F67A, Y75A, F158A, Q165A, F67A-Y75A, F67A-F158A, Y75A-F158A, F67A-Y75A-F158A) were grown in LB medium (supplemented with Ampicillin (100 µg/mL) and Chloramphenicol (34 µg/mL)) at 37°C (200 rpm) to OD600 ≈ 0.6 and protein overexpression was induced by the addition of isopropyl-1-thio-β-galactopyranoside (IPTG, 0.5 mM). […] Protein concentration was measured using the Pierce BCA Protein assay kit (Thermo Fisher Scientific, Pierce Biotechnology) and snap-frozen aliquots were stored at −80 °C. […]

S. aureus NCTC 8325 = test system: S. aureus NCTC 8325; design: method as in Le et al., Nat Chem. 2020; settings: ref Le et al., Nat Chem. 2020; cited from earlier work

Structure (SMILES)	wt DMSO + 0.001% NP-40 norm. value (wt SpsB [1]; 0.001% NP-40, normalized to DMSO + 0.001% NP-40 (100), single biological replicates)	wt DMSO + 0.01% Tween norm. value (wt SpsB [1]; 0.01% Tween, normalized to DMSO + 0.01% Tween (100), single biological replicates)	wt DMSO + 0.1% Chaps norm. value (wt SpsB [1]; 0.1% Chaps, normalized to DMSO + 0.1% Chaps (100), single biological replicates)	overactivation compared to DMSO (wt SpsB [2]; 50 µM compound concentration, ref Le et al., Nat Chem. 2020) [%]	overactivation of SpsB (wt SpsB [2])	elevated activity in Q165A mutant (SpsB Q165A mutant) [fold]	MIC (S. aureus NCTC 8325) [µM]	allosteric stimulation of SpsB activity (wt SpsB [1]; 10 µM in E. coli induced SpsB membranes) [%]	elevated activity in wildtype SpsB (wt SpsB [1]; 10 µM, relative to DMSO) [fold]	activation of wt SpsB in presence of detergents (wt SpsB [1]; 0.01% Tween, 0.001% NP-40, 0.1% CHAPS (<cmc), PK150 10 µM)	activity at 0.195 µM (wt SpsB [1]; PK150 0.195uM, replicates, read-out: wt PK150 (normalized activity)) [%]	activity at 0.39 µM (wt SpsB [1]; PK150 0.39uM, replicates, read-out: wt PK150 (normalized activity)) [%]	activity at 1.5625 µM (wt SpsB [1]; PK150 1.5625uM, replicates, read-out: wt PK150 (normalized activity)) [%]	wt PK150 10 µM norm. value (wt SpsB [1]; PK150 10 µM, substrate cleavage rate normalized to DMSO (100), single biological replicates)	overactivation at higher compound concentrations (wt SpsB [1]; higher compound concentrations (Figure 3a))
C[S+](C)[O-] [DMSO]	144.811 and 130.505	133.237 and 138.302	187.838 and 176.739												
O=C(Nc1ccc2c(c1)OC(F)(F)O2)Nc1ccc(Cl)c(C(F)(F)F)c1 [PK150, (4-Chloro-3-(trifluoromethyl)phenyl)-3-(2,2-difluorobenzo[d][1,3]dioxol-5-yl)urea]				250	up to 3 fold	1.7	0.3 (≈ 0.118 µg/mL)	170	1.7	Activation of wt SpsB with PK150 could still be shown for all detergents	111	127	131	153.034 and 181.137 and 173.665 and 173.73 and 163.958 and 182.132	up to 250%
